Tests used:
[1] = system: CDK6 expression in PTEN knockdown cells; experiment: Immunoblotting of CDK6 expression in PTEN knockdown cells; format: cell-based, human; design: dose or concentration left out as unconfirmed; conditions: MK-2206 as printed
Procedure: Cell lysates were collected in RIPA buffer (Thermo Fisher Scientific) supplemented with protease and phosphatase inhibitors (Pierce). Protein concentration was quantified by using the BCA kit (Fisher Scientific). […] of protein lysates were loaded onto 4-12% SDS-PAGE gels (Invitrogen) for electrophoresis and transferred onto nitrocellular membranes. Blots were blocked with Intercept™ (TBS) Blocking Buffer (LI-COR Bioscience #927-60001) and incubated with primary antibody at 4° C. overnight. Secondary antibodies conjugated with fluorescence (LI-COR Bioscience #926-68071 and #926-32210) were incubated for 1 h at room temperature and blots were scanned by Odyssey Clx Imaging System from LI-COR Bioscience.

CDK6 = CDK6 (Homo sapiens, UniProt Q00534); experiment: IP-in vitro kinase assay (ADP-Glo, Rb substrate) of immunoprecipitated CDK6; format: biochemical; design: Upregulation of wild-type CDK6 expression as a recurrent mechanism; endogenous in cells; host or cells: MCF-7 FAT1 CRISPR knockout (CDK6-high) cells; conditions: IP-CDK6 from resistant CDK6-high (FAT1 loss) MCF7 cells, pre-treatment with 100 nM abemaciclib
Procedure: IP-in vitro kinase assay. […] Lysates were collected as described above. […] of cell lysates were incubated with […] CDK4 (# sc-23896, Santa Cruz Biotechnology) or CDK6 (# sc-177-G, Santa Cruz Biotechnology) antibody at 4° C. overnight. 20 μl of ChIP-grade magnetic beads (Thermo Fisher Scientific) was added into each IP tube and incubated for 2 hours. IP samples were washed 2 times with kinase lysis buffer and 2 times with kinase reaction buffer (40 mM Tris-HCl [pH 7.5], 20 mM MgCl2, 0.1 mg/ml BSA, from SignalChem, #K03-09, with […] DTT adding freshly). 100 μl of kinase reaction buffer with 0.5 μg of recombinant human Rb1 protein and 100 μM of ATP was added into each tube.

Sequence of CDK6 (Q00534 whole entry): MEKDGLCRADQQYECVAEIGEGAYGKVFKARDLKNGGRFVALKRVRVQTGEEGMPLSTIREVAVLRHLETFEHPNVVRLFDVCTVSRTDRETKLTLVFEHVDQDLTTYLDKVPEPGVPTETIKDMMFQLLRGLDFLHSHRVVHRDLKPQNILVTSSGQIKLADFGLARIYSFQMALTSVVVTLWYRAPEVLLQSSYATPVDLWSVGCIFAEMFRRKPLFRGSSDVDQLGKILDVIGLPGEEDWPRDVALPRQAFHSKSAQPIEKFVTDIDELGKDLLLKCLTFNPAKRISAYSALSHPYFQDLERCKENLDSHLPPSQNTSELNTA
Sequence of CDK6 (P30281 whole entry partner): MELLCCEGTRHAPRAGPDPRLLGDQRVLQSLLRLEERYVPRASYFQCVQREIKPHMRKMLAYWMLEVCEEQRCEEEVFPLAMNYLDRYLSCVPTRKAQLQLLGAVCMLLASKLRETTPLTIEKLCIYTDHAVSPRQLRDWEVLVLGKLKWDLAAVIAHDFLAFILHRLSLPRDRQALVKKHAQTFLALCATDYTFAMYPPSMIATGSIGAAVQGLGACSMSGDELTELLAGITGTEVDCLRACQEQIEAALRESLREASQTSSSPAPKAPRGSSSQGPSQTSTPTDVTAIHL

NC1(c2ccc(-c3nc4ccn5c(=O)[nH]nc5c4cc3-c3ccccc3)cc2)CCC1 [MK-2206]
CDK6 expression [1]: suppressed the expression of CDK6

CCN1CCN(Cc2ccc(Nc3ncc(F)c(-c4cc(F)c5nc(C)n(C(C)C)c5c4)n3)nc2)CC1 [abemaciclib]
CDK6 activity reduced compared to untreated (CDK6): 48%

Reference: patent publication US20250144099A1, “INK4 TUMOR SUPPRESSOR PROTEINS MEDIATE RESISTANCE TO CDK4/6 KINASE INHIBITORS” (MEMORIAL SLOAN-KETTERING CANCER CENTER, priority 2021, published 2025)
